# Experimental data published in US7279161B2, “Factor IX/factor IXa activating antibodies and antibody derivatives” (Baxter Aktiengesellschaft, priority 1999, dated 2007).
# Target: T1, human FIXa (Homo sapiens, UniProt P00740)
# T1 construct: with (+) and without (−) addition of 50 ng human FIXaβ; purchased ERL (Enzyme Research Laboratories)
# Assay: Chromogenic FVIII-like (FXa generation) assay with human FIXa added
# Format: biochemical
# Outline: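 FXa generation at 37 °C with bovine FIXa/FX plus phospholipids, 25 mM CaCl2 stock, S-2222 substrate and thrombin inhibitor I-2581; 50 ng human FIXa added per reaction. Absorbance at 405 and 490 nm read from 5 min to 2 h against a reagent blank.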
# T1 sequence (P00740 47-191 limits assumed): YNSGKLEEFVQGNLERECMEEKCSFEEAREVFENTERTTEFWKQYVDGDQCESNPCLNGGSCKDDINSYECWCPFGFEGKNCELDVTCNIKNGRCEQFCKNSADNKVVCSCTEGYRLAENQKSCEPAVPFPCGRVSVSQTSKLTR
# T1 sequence (P00740 227-461 limits assumed): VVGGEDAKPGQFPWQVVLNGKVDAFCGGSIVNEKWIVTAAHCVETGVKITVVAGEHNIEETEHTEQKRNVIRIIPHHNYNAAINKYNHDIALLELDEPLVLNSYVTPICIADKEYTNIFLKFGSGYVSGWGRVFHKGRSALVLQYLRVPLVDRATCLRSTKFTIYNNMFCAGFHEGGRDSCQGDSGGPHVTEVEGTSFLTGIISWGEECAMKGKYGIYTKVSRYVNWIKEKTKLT
sequence,measurement,setting,value
RRREGGGYYVNWYFDRRR [A1/3],chromogenic FVIII-like activity (FXa generation),2.9 nM human FIXa,readily measurable FXa generation
same,chromogenic activity,"12 μM peptide, 2.3 nM human FIXa",virtually unchanged
same,chromogenic FVIII-like activity,"24 μM, with vs without 2.3 nM human FIXa",the reaction takes place only in the presence of human FIXa
